In patent US8173771B2, “Humanin receptor or humanin-like polypeptide receptor” (Keio Univeristy, priority 2005, dated 2012):
Peptide text beside a SMILES is read from it.

Legend:
[1] = system: HN receptor (HNR; CNTF-R/WSX-1/gp130) on F11 cells; experiment: Immunofluorescence-based binding assay (2): biotin-HN / biotin-HNG binding to F11 cells; parameters: species or system mouse
Procedure: A) F11 cells were seeded on 96-well plates coated with poly-L-lysine (7×10^3 cells/well). An indicated amount of biotin-HN or biotin-HNG was added to the cells with or without 10 μM of unlabelled HNG or HNA, followed by a binding assay based on immunofluorescence reaction (2) (left panels). On the other hand, F11 cells were transfected with 0.5 μg of pcDNA3.1/GS-human CNTF-R, pEF1/MycHis-human WSX-1, and 1.0 μg of pCAG-human gp130. At 24 hrs after the transfection, the cells were re-seeded on 96-well plates coated with poly-L-lysine (7×10^3 cells/well). After 36 hrs the re-seeding, an indicated amount of biotin-HN or biotin-HNG was added to the cells with or without 10 μM of unlabeled HNG or HNA, followed by a binding assay based on immunofluorescence reaction (2) (right panels).
B) F11 cells were transfected with 0.5 μg of pRNA-U1.6/Shuttle vector, pRNA-U6.1/Shuttle-WSX-1 siRNA, pRNA-U6.1/Shuttle-CNTF-R siRNA, both pRNA-U6.1/Shuttle-WSX-1 siRNA and pRNA-U6.1/Shuttle-CNTF-R siRNA (0.5 μg each), pRNA-U6.1/Shuttle-FPR2 siRNA or pRNA-U6.1/Shuttle-LIFR siRNA. The total amount of vectors was adjusted to be 1.0 μg by including a backbone vector. At 24 hrs after the transfection, an indicated amount of biotin-HNG was added with or without unlabeled HNG, followed by a binding assay based on immunofluorescence reaction (2) at 72 hrs after the transfection.
E) F11 cells on 6-well plate (7×10^4 cells/well) were transfected with 1.0 μg of pRNA-U6.1/Shuttle vector, pRNA-U6.1/Shuttle-Bax siRNA, or both pRNA-U6.1/Shuttle-WSX-1 siRNA and pRNA-U6.1/Shuttle-CNTF-R siRNA (0.5 μg each). At 72 hrs after the transfection, the cells were added with an indicated amount of biotin-HN with or without unlabeled HN or HNA (100 μM) and subjected to an HN-binding assay based on immunofluorescence.
F11 cells (7×10^4/well in 6-well plates) were replated into 96-well plates (7×10^3 cells/well) at 24 hrs after transfection with indicated amounts of the plasmids encoding mycHis-WSX or V5-CNTF-R, and with PCAG-human gp130 if required. At 36 hrs after transfection, the cells were added with biotin-labeled HN or HNG of indicated concentrations in the presence or the absence of HNG (S14G-HN) or HNA (C8A-HN) of indicated concentrations (Hashimoto et al., 2001 a). After 6 hrs incubation, they were fixed with 4% paraformaldehyde in PBS for 30 min. After washing with PBS, cells were stained with FITC-conjugated avidin (Molecularprobe, Eugene, Oreg., USA). Immunofluorescence intensity was measured (excitation=485 nm, emission=535 nm) with a spectrofluorometer (Wallac1420 ARVOsx Multi Label Counter). Immunohistochemical analysis was done with a laser-scanning, confocal microscope LSM (Carl Zeiss, Germany).

STAT3 = experiment: Immunoblot of phosphotyrosine 705 of STAT3 in F11 cells; assay type: cell-based
Procedure: E) F11 cells were transfected with an indicated amount of pRNA-U6.1/Shuttle vector (empty), pRNA-U6.1/Shuttle-IL-6R siRNA, or pRNA-U6.1/Shuttle-LIFR siRNA. At 48 hrs after transfection, the cells were treated with 100 ng/ml IL-6, 100 ng/ml CNTF or 1 μM HNG at 37° for 15 min, and harvested. The results of immunoblot analysis using anti-phophoSTAT3 ([…]) antibody and anti-STAT3 antibody were shown in photos. A) F11 cells were added with an indicated amount of HN, HNG or HNA and harvested 15 min later for immunoblot analysis with antibodies recognizing phosphotyrosine 705 of STAT3 or STAT3. The results are shown in photos. B) F11 cells were transfected with 0.5 μg of pRNA-U1.6/Shuttle vector, pRNA-U6.1/Shuttle-WSX-1 siRNA, pRNA-U6.1/Shuttle-CNTF-R siRNA, both pRNA-U6.1/Shuttle-WSX-1 siRNA and pRNA-U6.1/Shuttle-CNTF-R siRNA (0.5 μg each), or pRNA-U6.1/Shuttle-FPR2 siRNA. The total amount of vectors was adjusted to be 1.0 μg by including a backbone vector. […] The results are shown in photos. Cell lysates (10-20 μg/lane) or pulled-down precipitates were subject to SDS-PAGE, and the proteins separated on the gel were transferred onto polyvinylidene difluoride membranes as described (Hashimoto et al, 2000). Visualization of the immunoreactive protein bands was performed by ECL (Amersham Pharmacia Biotech, Uppsala, Sweden).

## CC[C@H](C)[C@H](NC(=O)[C@H](CCC(=O)O)NC(=O)CNC(=O)[C@@H](NC(=O)[C@H](CC(C)C)NC(=O)[C@H](CC(C)C)NC(=O)[C@H](CC(C)C)NC(=O)[C@H](CC(C)C)NC(=O)[C@H](CS)NC(=O)[C@H](CO)NC(=O)[C@H](Cc1ccccc1)NC(=O)CNC(=O)[C@H](CCCNC(=N)N)NC(=O)[C@@H]1CCCN1C(=O)[C@H](C)NC(=O)[C@@H](N)CCSC)[C@@H](C)O)C(=O)N[C@@H](CC(=O)O)C(=O)N[C@@H](CC(C)C)C(=O)N1CCC[C@H]1C(=O)N[C@H](C(=O)N[C@@H](CCCCN)C(=O)N[C@@H](CCCNC(=N)N)C(=O)N[C@@H](CCCNC(=N)N)C(=O)N[C@@H](C)C(=O)O)C(C)C [HNG, S14 G-Humanin] (H-MAPRGFSCLLLLTGEIDLPVKRRA-OH; N-terminus and C-terminus assumed)
[1]; expression of endogenous CNTF-R and WSX-1 simultaneously decreased by siRNA
  binding to F11 cells: almost completely inhibited
[1]; expression of endogenous CNTF-R or WSX-1 decreased by siRNA
  binding to F11 cells: significantly decreased
STAT3; F11 cells, 15 min
  phosphorylation of tyrosine 705 of STAT3: increased
STAT3; decrease of expression of endogenous CNTF-R or WSX-1 by siRNA
  phosphorylation of tyrosine 705 of STAT3: almost completely inhibited
